Experimental data taken from ChEMBL document CHEMBL2417501, “Synthesis of 4-aminoquinoline-pyrimidine hybrids as potent antimalarials and their mode of action studies” (Eur J Med Chem, 2013).

test system: Vaccinia virus; experiment: Antiviral activity against Vaccinia virus infected in human HEL cells assessed as reduction of virus-induced cytopathogenicity; format: functional, organism-based; details: Orthopoxvirus vaccinia

Structure (SMILES)	EC50
COC(=O)c1c(C)nc(NCCCNc2ccnc3cc(Cl)ccc23)nc1-c1ccccc1	> 20 µM
CCOC(=O)c1c(C)nc(OCCCNc2ccnc3cc(Cl)ccc23)nc1-c1ccccc1	> 100 µM
Nc1nc2c(ncn2COCCO)c(=O)[nH]1 [ACYCLOVIR]	> 250 µM
CCOC(=O)c1c(C)nc(NCCCCNc2ccnc3cc(Cl)ccc23)nc1-c1ccccc1[N+](=O)[O-]	> 4 µM
CCOC(=O)c1c(C)nc(NCCCCNc2ccnc3cc(Cl)ccc23)nc1-c1ccc(Cl)cc1	> 20 µM
Cc1nc(NCCCCNc2ccnc3cc(Cl)ccc23)nc(-c2ccccc2)c1C(=O)OC(C)C	> 4 µM
CCOC(=O)c1c(C)nc(NCCCCNc2ccnc3cc(Cl)ccc23)nc1-c1ccc(F)cc1	> 100 µM
CCOC(=O)c1cnc(NCCCCNc2ccnc3cc(Cl)ccc23)nc1C	> 100 µM
Nc1ccn(C[C@@H](CO)OCP(=O)(O)O)c(=O)n1 [CIDOFOVIR]	17 µM
O=c1[nH]c(=O)n([C@H]2C[C@H](O)[C@@H](CO)O2)cc1/C=C/Br [BRIVUDINE]	5 µM
Nc1nc2c(ncn2COC(CO)CO)c(=O)[nH]1 [GANCICLOVIR]	> 100 µM
